We go through three compounds from patent EP4327830A1 (priority 2022, dated 2024).

One assay has as its system HEK293 OATP1B3+. The following applies: for IC50: read-out: IC50_cytotox on OATP1B3 expressing cell line + SE.
Another assay deals with HEK293 OATP1B1+. The following applies: for IC50: read-out: IC50_cytotox on OATP1B1 expressing cell line + SE.
The target of assay [1] is protein phosphatase-1 catalytic subunit (a-Isoform from rabbit, Sigma-Aldrich) (Oryctolagus cuniculus, UniProt P62139). It is filed as biochemical. The following applies: read-out: IC50_PPI + SE.
Assay [2] relates to type 2A protein phosphatases. The following applies: cited from earlier work.
Assay [3] has as its target type 1 protein phosphatase. The following applies: cited from earlier work.

Sequence of protein phosphatase-1 catalytic subunit (a-Isoform from rabbit, Sigma-Aldrich) (P62139 whole entry, looked up, canonical isoform): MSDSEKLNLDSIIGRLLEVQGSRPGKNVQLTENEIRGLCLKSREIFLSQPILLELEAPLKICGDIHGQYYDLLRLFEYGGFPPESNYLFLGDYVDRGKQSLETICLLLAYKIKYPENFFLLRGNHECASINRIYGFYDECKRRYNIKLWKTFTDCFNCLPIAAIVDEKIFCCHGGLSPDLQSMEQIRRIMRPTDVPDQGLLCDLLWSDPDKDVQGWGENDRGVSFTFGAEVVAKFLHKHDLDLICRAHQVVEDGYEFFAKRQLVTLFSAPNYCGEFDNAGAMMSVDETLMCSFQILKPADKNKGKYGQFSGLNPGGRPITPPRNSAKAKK

As for `C#CCOc1ccc(C[C@@H]2NC(=O)[C@@H](C)NC(=O)C(=C)N(C)C(=O)CC[C@H](C(=O)O)NC(=O)[C@@H](C)[C@H](/C=C/C(C)=C/[C@H](C)[C@H](Cc3ccccc3)OC)NC(=O)[C@H](CCCNC(=N)N)NC(=O)C[C@H](C(=O)O)NC2=O)cc1` [MC-(Prtyr)R, cyclo(D-Ala-Prtyr-D-Asp-R-Adda-D-Glu-Mdha)], the “Ratio of IC50_cytotox OATP1B3/ IC50_PPI” value with HEK293 OATP1B3+ was 4.81. The IC50 in the assay with HEK293 OATP1B3+ is 40.4 ± 36.6 nM; with HEK293 OATP1B1+, 82.2 ± 4.5 nM; in assay [1], 8.4 ± 5.4 nM. Moreover, the “Ratio of IC50_Cytotox OATP1B1/ IC50_PPI” value with HEK293 OATP1B1+ was determined as 9.79.
Turning to `C=C1C(=O)N[C@H](C)C(=O)N[C@@H](CCCN=[N+]=[N-])C(=O)N[C@@H](C(=O)O)CC(=O)N[C@@H](CCCNC(=N)N)C(=O)N[C@@H](/C=C/C(C)=C/[C@H](C)[C@H](Cc2ccccc2)OC)[C@H](C)C(=O)N[C@@H](C(=O)O)CCC(=O)N1C` [MC-(Aznva)R, cyclo(D-Ala-Aznva-D-Asp-R-Adda-D-Glu-Mdha)], in the assay with HEK293 OATP1B3+, the “Ratio of IC50_cytotox OATP1B3/ IC50_PPI” value is listed as 0.58. Moreover, the IC50 in the assay on HEK293 OATP1B3+ turned out to be 27 ± 1.5 nM; with HEK293 OATP1B1+ it was 24.1 ± 11.5 nM; in assay [1], 46.7 ± 9.2 nM. Also, the “Ratio of IC50_Cytotox OATP1B1/ IC50_PPI” value in the assay with HEK293 OATP1B1+ amounted to 0.52.
Regarding microcystin-LR, the IC50 was 0.04 nM in assay [2] and 0.03 nM in assay [3].
